Here are results for six molecules from publication PMC4779111, “A Human Renal Proximal Tubule Cell Line with Stable Organic Anion Transporter 1 and 3 Expression Predictive for Antiviral-Induced Toxicity” (The AAPS Journal, 2016).

Structures can show the parent of a compound that is named as a salt. Where two headings read alike, the source gives them in different places.

Series [1] in a line: MTT viability assay, ciPTEC-OAT1. It is filed as cell-based, human. The following applies: human, ciPTEC-OAT1 cells (monolayers, 96-well).
The next series deals with ciPTEC-OAT1. Put plainly: MTT viability assay, ciPTEC-OAT1. It is filed as cell-based, human.
A further series concerns ciPTEC-OAT3. Description: MTT viability assay, ciPTEC-OAT3. The series is classed as cell-based, human. The following applies: ciPTEC-OAT3, 24, 48 and 72 h. The method, then: Cell toxicity was analyzed further in presence of MRP and BCRP efflux inhibitors MK571 (5 μM) and KO143 (10 μM).
The conditions of series [2]: plasma, maximal free plasma concentration, 47 (zidovudine), cited from earlier work.
In a further series the test system is hOAT1-CHO and HEK-OAT1. To be noted: cited from earlier work.
On the set-up of series [3]: method as in PMID 19445515. The following applies: cited from earlier work.
Series [4] deals with T1, OAT1 (Homo sapiens, UniProt Q4U2R8).
T1 sequence (Q4U2R8 1-563): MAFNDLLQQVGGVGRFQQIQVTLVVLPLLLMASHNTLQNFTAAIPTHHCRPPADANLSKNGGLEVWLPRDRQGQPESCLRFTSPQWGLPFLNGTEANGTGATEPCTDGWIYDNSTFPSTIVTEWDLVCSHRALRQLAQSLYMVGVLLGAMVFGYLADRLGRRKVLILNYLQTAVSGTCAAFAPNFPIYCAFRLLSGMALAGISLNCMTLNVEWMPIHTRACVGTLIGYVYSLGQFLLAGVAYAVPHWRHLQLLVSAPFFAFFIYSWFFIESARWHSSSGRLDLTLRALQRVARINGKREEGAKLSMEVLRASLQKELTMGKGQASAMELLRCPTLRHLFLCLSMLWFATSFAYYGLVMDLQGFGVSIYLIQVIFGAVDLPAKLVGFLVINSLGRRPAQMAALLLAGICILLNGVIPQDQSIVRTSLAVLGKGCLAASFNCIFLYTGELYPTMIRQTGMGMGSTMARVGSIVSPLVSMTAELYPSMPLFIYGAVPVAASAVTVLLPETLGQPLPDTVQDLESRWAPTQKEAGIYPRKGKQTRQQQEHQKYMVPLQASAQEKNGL
Description: Inhibition of OAT-mediated fluorescein uptake in ciPTEC-OAT1. On the set-up: host or cells: ciPTEC (human conditionally immortalized proximal tubule epithelial cells), lentiviral transduction. It is filed as cell-based. The method, then:
(§1) All chemicals were obtained from Sigma, unless stated otherwise. Uptake was stopped by washing three times with ice-cold HBSS (4°C).
(§2) Non-linear regression with variable slope constraining the top to 100% was used to fit the data after background subtraction with GraphPad Prism. Statistics was performed by two-way ANOVA (two-tailed, α = 0.05) using GraphPad Prism as well. All data is presented as mean ± SEM of at least three separate experiments (n = 3) performed in triplicate, unless stated otherwise.

Series [5] has as its target T2, OAT3 (Homo sapiens, UniProt Q8TCC7).
T2 sequence (Q8TCC7 1-542): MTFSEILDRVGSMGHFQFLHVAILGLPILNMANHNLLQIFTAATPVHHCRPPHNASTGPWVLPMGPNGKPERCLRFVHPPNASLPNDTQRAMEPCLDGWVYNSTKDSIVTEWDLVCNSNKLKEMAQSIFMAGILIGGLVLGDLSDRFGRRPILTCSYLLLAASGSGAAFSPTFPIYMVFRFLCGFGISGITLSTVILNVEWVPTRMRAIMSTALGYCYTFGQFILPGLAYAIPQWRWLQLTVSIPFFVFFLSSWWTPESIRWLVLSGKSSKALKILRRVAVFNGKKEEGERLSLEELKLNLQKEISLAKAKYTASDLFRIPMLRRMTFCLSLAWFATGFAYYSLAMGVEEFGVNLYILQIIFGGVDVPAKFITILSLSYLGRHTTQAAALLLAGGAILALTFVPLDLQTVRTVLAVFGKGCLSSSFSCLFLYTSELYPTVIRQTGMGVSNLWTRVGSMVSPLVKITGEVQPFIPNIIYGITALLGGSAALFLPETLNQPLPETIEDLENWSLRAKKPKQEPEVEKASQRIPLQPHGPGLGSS
Put plainly: Inhibition of OAT-mediated fluorescein uptake in ciPTEC-OAT3. The protocol: as §1, §2

Series [6] addresses T2, OAT3. To be noted: substrate estrone sulfate, Xenopus-OAT3; read-out: IC50 (literature); cited from earlier work.
In series [7] the target is T1, OAT1. Description: OAT1-mediated fluorescein uptake kinetics in ciPTEC-OAT1. The series is classed as cell-based. On the set-up: host or cells: ciPTEC (human conditionally immortalized proximal tubule epithelial cells), lentiviral transduction. The method, then:
as §1

The target in series [8] is T2, OAT3. Description: OAT3-mediated fluorescein uptake kinetics in ciPTEC-OAT3. The series is classed as cell-based. More on the design: host or cells: ciPTEC (human conditionally immortalized proximal tubule epithelial cells), lentiviral transduction. To be noted: n = 4. The method, then: as §1
Substrate in series [9]: O=C1OC2(c3ccc(O)cc3Oc3cc(O)ccc32)c2ccccc21
Put plainly: cells, lysate or membranes. To be noted: other: fluorescein uptake, 10 min, Michaelis-Menten with linear diffusion, mean ± SEM, n = 4; 37.0 °C.

On to `Nc1ccn(C[C@@H](CO)OCP(=O)(O)O)c(=O)n1` [Cidofovir, cidofovir], for which, in series [1], the half-inhibitory concentration (IC50) at 48 h turned out to be 130 ± 58 µM. In addition, in [1] (read-out: IC50 on cell viability (MTT), 24 h), the IC50 at 24 h came to 613 ± 384 µM. In addition, in series [1] (read-out: IC50 on cell viability (MTT), 72 h), the IC50 at 72 h is 69 ± 2 µM. The “Cell viability (MTT)” value in the series with ciPTEC-OAT1 (ciPTEC-OAT1, 1 mM, 48 h, serum-free medium) was “significantly affected cell viability”. In addition, the “Cell viability (MTT), concentration and time dependence” value in the series with ciPTEC-OAT1 (ciPTEC-OAT1, 24, 48 and 72 h) was “concentration- and time-dependent decrease in viability”; with ciPTEC-OAT3 it was “less pronounced”. For the same molecule, the Cmax was 15.8 µM in [2] (first-listed (lower) value per drug, ref 40 (adefovir), 42 (cidofovir), 45 (tenofovir)) and 26.3 µM in series [2] (second-listed (higher) value per drug, ref 41 (adefovir), 43 (cidofovir), 46 (tenofovir)). The half-maximal inhibitory concentration (IC50) in the series with hOAT1-CHO and HEK-OAT1 (120 h, OAT1 overexpression cells, read-out: IC50 on cell viability (literature), 120 h) was 3 ± 1 µM; in the series on hOAT1-CHO and HEK-OAT1 (read-out: IC50 on cell viability (literature), 48 h, OAT1 overexpression cells), 0.5 ± 0.2 µM; on OAT1 [4], 71 ± 34 µM. Further, in series [3], the “Renal excretion of unchanged drug (in words)” value is “largely excreted unchanged by the kidneys”. At OAT1 [4] (ciPTEC-OAT1, fluorescein 1 μM, 10 min), the “Effect on OAT-mediated fluorescein uptake (in words)” value was “Concentration-dependent inhibition”.

Turning to `C[C@]12CC[C@@H]3c4ccc(OS(=O)(=O)O)cc4CC[C@H]3[C@@H]1CCC2=O` [Estrone sulfate, estrone sulfate], the IC50 on OAT3 [5] (read-out: IC50 of fluorescein uptake, ciPTEC-OAT3, fluorescein 1 μM, 10 min, HBSS 37°C, mean ± SEM, n = 4, cimetidine: apparent IC50 due to partial inhibition) is 2.1 ± 0.3 µM; on OAT3 [6] it was 3 µM.

With `O=C1OC2(c3ccc(O)cc3Oc3cc(O)ccc32)c2ccccc21` [Fluorescein, fluorescein], the Vmax amounted to 695 ± 84 RFU at OAT1 [7] (fluorescein uptake, 10 min, n = 4) and 384 ± 103 RFU on OAT3 [8] (fluorescein uptake, 10 min). The “Fluorescein affinity for OAT1 relative to OAT3” value on OAT1 [7] (from Km values of Table I) is “approximately fivefold higher”. Besides, the Kd amounted to 2.4 ± 1.2 RFU*L/μmol at OAT1 [7] (passive diffusion component kd of fluorescein uptake, n = 4) and 4.3 ± 0.9 RFU*L/μmol at OAT3 [8] (passive diffusion component kd of fluorescein uptake).

In the case of `Nc1ccc(C(=O)NCC(=O)O)cc1` [Para-aminohippuric acid, para-aminohippuric acid], at OAT3 [5], inhibition was half-maximal at 152 ± 3 µM (IC50). Moreover, the “Fluorescein uptake by flow cytometry in presence of inhibitor” value on OAT3 [5] (transduced ciPTEC-OAT3, fluorescein 1 μM, 10 min, inhibitor 100 μM) was “sensitive to para-aminohippuric acid-induce inhibition”.

B1: OAT1 (Homo sapiens) (protein)
chain: T1 sequence (Q4U2R8 1-563)
Regarding B1, the Michaelis constant (Km) in [9] amounted to 0.8 ± 0.1 µM.

B2: OAT3 (Homo sapiens) (protein)
chain: T2 sequence (Q8TCC7 1-542)
Take B2: in [9], the Km came to 3.7 ± 0.5 µM.
